Measured values as given in ChEMBL document CHEMBL1909046, “DrugMatrix in vitro pharmacology data”.

molecular target: T1, Alpha-2C adrenergic receptor (Homo sapiens, UniProt P18825); test: DRUGMATRIX: Adrenergic Alpha-2C radioligand binding (ligand: [3H] MK-912); type: cell membranes, Sf9, Membrane; conditions: sf9
T1 sequence (P18825 whole entry): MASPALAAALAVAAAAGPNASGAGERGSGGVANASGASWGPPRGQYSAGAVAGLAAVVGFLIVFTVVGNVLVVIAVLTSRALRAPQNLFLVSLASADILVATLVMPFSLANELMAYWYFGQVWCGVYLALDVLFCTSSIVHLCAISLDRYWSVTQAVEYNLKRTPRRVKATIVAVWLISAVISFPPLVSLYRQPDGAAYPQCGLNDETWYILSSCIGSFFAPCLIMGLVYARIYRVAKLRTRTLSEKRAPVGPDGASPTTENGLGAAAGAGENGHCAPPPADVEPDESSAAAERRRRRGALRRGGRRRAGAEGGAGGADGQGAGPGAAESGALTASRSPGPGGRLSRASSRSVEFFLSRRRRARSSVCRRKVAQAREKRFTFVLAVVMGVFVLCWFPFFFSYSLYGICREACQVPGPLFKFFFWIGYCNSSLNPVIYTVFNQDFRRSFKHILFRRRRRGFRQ

| SMILES | IC50 |
| --- | --- |
| COc1c(N2CCNC(C)C2)c(F)cc2c(=O)c(C(=O)O)cn(C3CC3)c12 (configuration not stated) [GATIFLOXACIN] | Not Active |
| CC(=O)CCCCn1c(=O)c2c(ncn2C)n(C)c1=O [PENTOXIFYLLINE] | Not Active |
| O=C1CN=C(c2ccccc2)c2cc([N+](=O)[O-])ccc2N1 [NITRAZEPAM] | Not Active |

molecular target: T2, 5-hydroxytryptamine receptor 1A (Rattus norvegicus, UniProt P19327); type: cell membranes, CHO-K1, Membrane; conditions: cho-k1; note: in other assays of this panel Not Active means under 50% inhibition at 10 µM
T2 sequence (P19327 whole entry): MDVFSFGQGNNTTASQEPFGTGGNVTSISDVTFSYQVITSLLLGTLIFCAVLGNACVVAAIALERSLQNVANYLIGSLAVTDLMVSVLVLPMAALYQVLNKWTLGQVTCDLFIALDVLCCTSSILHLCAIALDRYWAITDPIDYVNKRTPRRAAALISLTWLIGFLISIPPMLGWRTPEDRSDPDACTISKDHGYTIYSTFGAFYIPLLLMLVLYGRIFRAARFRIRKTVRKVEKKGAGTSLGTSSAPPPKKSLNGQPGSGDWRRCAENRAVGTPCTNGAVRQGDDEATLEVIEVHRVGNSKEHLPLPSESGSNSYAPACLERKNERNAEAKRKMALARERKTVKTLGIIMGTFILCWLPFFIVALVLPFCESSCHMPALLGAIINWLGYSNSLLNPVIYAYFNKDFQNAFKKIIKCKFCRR

| SMILES | IC50 |
| --- | --- |
| COc1c(N2CCNC(C)C2)c(F)cc2c(=O)c(C(=O)O)cn(C3CC3)c12 (configuration not stated) [GATIFLOXACIN] | Not Active |
| CC(=O)CCCCn1c(=O)c2c(ncn2C)n(C)c1=O [PENTOXIFYLLINE] | Not Active |
| O=C1CN=C(c2ccccc2)c2cc([N+](=O)[O-])ccc2N1 [NITRAZEPAM] | Not Active |

test system: not listed separately; test: DRUGMATRIX: Phosphodiesterase PDE3 enzyme inhibition (substrate: [3H]cAMP + cAMP); type: tissue-based, Homo sapiens; conditions: platelet; Not Active = under 50% inhibition at 10 µM

| SMILES | IC50 | Ki |
| --- | --- | --- |
| COc1c(N2CCNC(C)C2)c(F)cc2c(=O)c(C(=O)O)cn(C3CC3)c12 (configuration not stated) [GATIFLOXACIN] | Not Active | Not Active |
| CC(=O)CCCCn1c(=O)c2c(ncn2C)n(C)c1=O [PENTOXIFYLLINE] | Not Active | Not Active |
| O=C1CN=C(c2ccccc2)c2cc([N+](=O)[O-])ccc2N1 [NITRAZEPAM] | Not Active | Not Active |

test system: not listed separately; test: DRUGMATRIX: GABAA, Flunitrazepam, Central radioligand binding (ligand: [3H] Flunitrazepam); type: cell membranes, Rattus norvegicus, Wistar, Brain, Membrane; conditions: Not Active = under 50% inhibition at 10 µM

| SMILES | IC50 | Ki |
| --- | --- | --- |
| COc1c(N2CCNC(C)C2)c(F)cc2c(=O)c(C(=O)O)cn(C3CC3)c12 (configuration not stated) [GATIFLOXACIN] | Not Active | Not Active |
| CC(=O)CCCCn1c(=O)c2c(ncn2C)n(C)c1=O [PENTOXIFYLLINE] | Not Active | Not Active |

same assay, conditions: Not Active = under 50% inhibition at 10 µM; read-out: IC50

| SMILES | IC50 [nM] |
| --- | --- |
| O=C1CN=C(c2ccccc2)c2cc([N+](=O)[O-])ccc2N1 [NITRAZEPAM] | 54.7 |

same assay, conditions: Not Active = under 50% inhibition at 10 µM; read-out: Ki

| SMILES | Ki [nM] |
| --- | --- |
| O=C1CN=C(c2ccccc2)c2cc([N+](=O)[O-])ccc2N1 [NITRAZEPAM] | 44.6 |

molecular target: Sodium-dependent noradrenaline transporter (Homo sapiens, UniProt P23975); test: DRUGMATRIX: Norepinephrine Transporter radioligand binding (ligand: [125I] RTI-55); type: cell membranes, MDCK, Membrane; conditions: mdck; Not Active = under 50% inhibition at 10 µM
Sequence (P23975 whole entry): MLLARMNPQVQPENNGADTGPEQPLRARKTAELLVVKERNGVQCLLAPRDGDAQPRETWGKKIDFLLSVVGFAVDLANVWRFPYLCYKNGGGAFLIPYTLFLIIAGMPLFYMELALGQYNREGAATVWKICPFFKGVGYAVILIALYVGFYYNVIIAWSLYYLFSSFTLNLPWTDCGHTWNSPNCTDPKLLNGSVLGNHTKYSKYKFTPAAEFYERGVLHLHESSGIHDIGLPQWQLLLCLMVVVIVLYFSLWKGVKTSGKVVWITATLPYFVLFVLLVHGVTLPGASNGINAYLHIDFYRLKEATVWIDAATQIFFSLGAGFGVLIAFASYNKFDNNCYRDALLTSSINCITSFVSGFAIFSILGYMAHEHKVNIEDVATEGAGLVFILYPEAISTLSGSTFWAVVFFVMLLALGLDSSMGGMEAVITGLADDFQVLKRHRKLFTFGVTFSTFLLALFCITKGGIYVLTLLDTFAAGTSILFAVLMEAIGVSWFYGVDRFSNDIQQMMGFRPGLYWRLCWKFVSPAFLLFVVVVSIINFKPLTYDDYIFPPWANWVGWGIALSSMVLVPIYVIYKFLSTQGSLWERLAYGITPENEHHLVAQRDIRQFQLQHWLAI

| SMILES | IC50 |
| --- | --- |
| COc1c(N2CCNC(C)C2)c(F)cc2c(=O)c(C(=O)O)cn(C3CC3)c12 (configuration not stated) [GATIFLOXACIN] | Not Active |
| CC(=O)CCCCn1c(=O)c2c(ncn2C)n(C)c1=O [PENTOXIFYLLINE] | Not Active |
| O=C1CN=C(c2ccccc2)c2cc([N+](=O)[O-])ccc2N1 [NITRAZEPAM] | Not Active |

molecular target: Beta-2 adrenergic receptor (Homo sapiens, UniProt P07550); test: DRUGMATRIX: Adrenergic beta2 radioligand binding (ligand: [3H] CGP-12177); type: cell membranes, Membrane; conditions: cho; Not Active = under 50% inhibition at 10 µM
Sequence (P07550 whole entry): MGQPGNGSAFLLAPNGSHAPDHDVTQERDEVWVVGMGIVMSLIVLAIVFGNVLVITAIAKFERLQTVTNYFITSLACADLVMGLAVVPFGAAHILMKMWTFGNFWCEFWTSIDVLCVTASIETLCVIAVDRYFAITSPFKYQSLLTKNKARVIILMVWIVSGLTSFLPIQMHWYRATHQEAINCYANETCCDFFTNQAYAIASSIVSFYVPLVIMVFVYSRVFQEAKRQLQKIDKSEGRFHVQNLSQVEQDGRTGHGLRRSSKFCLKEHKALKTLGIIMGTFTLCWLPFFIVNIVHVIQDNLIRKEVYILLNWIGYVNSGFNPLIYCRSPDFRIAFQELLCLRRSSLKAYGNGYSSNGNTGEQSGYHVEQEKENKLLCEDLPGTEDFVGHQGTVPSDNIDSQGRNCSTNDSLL

| SMILES | IC50 |
| --- | --- |
| COc1c(N2CCNC(C)C2)c(F)cc2c(=O)c(C(=O)O)cn(C3CC3)c12 (configuration not stated) [GATIFLOXACIN] | Not Active |
| CC(=O)CCCCn1c(=O)c2c(ncn2C)n(C)c1=O [PENTOXIFYLLINE] | Not Active |
| O=C1CN=C(c2ccccc2)c2cc([N+](=O)[O-])ccc2N1 [NITRAZEPAM] | Not Active |

test system: not listed separately; test: DRUGMATRIX: Atrial Natriuretic Factor (ANF) radioligand binding (ligand: [125I] ANF (rat)); type: cell membranes, Cavia porcellus, Dunkin-Hartley, Adrenal gland, Membrane; conditions: Not Active = under 50% inhibition at 10 µM

| SMILES | IC50 | Ki |
| --- | --- | --- |
| COc1c(N2CCNC(C)C2)c(F)cc2c(=O)c(C(=O)O)cn(C3CC3)c12 (configuration not stated) [GATIFLOXACIN] | Not Active | Not Active |
| CC(=O)CCCCn1c(=O)c2c(ncn2C)n(C)c1=O [PENTOXIFYLLINE] | Not Active | Not Active |
| O=C1CN=C(c2ccccc2)c2cc([N+](=O)[O-])ccc2N1 [NITRAZEPAM] | Not Active | Not Active |

molecular target: T3, Endothelin-1 receptor (Homo sapiens, UniProt P25101); type: cell membranes, Membrane; conditions: cho-k1; note: in other assays of this panel Not Active means under 50% inhibition at 10 µM
T3 sequence (P25101 whole entry): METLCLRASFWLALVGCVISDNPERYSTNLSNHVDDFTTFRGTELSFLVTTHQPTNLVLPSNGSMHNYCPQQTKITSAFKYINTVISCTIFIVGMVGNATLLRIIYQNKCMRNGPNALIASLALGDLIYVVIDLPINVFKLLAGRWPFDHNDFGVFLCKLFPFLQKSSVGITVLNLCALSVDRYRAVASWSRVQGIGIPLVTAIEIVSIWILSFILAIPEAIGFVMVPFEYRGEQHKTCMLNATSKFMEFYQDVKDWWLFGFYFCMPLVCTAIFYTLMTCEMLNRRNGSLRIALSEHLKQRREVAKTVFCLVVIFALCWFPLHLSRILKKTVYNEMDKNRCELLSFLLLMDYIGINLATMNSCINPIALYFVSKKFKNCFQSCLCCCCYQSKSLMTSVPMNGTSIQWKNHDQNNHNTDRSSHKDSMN

| SMILES | IC50 |
| --- | --- |
| COc1c(N2CCNC(C)C2)c(F)cc2c(=O)c(C(=O)O)cn(C3CC3)c12 (configuration not stated) [GATIFLOXACIN] | Not Active |
| CC(=O)CCCCn1c(=O)c2c(ncn2C)n(C)c1=O [PENTOXIFYLLINE] | Not Active |
| O=C1CN=C(c2ccccc2)c2cc([N+](=O)[O-])ccc2N1 [NITRAZEPAM] | Not Active |

test system: not listed separately; test: DRUGMATRIX: Calcium Channel Type L, Dihydropyridine radioligand binding (ligand: [3H] Nitrendipine); type: cell membranes, Rattus norvegicus, Wistar, Cerebral cortex, Membrane; conditions: Not Active = under 50% inhibition at 10 µM

| SMILES | IC50 | Ki |
| --- | --- | --- |
| COc1c(N2CCNC(C)C2)c(F)cc2c(=O)c(C(=O)O)cn(C3CC3)c12 (configuration not stated) [GATIFLOXACIN] | Not Active | Not Active |
| CC(=O)CCCCn1c(=O)c2c(ncn2C)n(C)c1=O [PENTOXIFYLLINE] | Not Active | Not Active |
| O=C1CN=C(c2ccccc2)c2cc([N+](=O)[O-])ccc2N1 [NITRAZEPAM] | Not Active | Not Active |

molecular target: Kappa-type opioid receptor (Homo sapiens, UniProt P41145); test: DRUGMATRIX: Opiate kappa (OP2, KOP) radioligand binding (ligand: [3H] Diprenorphine); type: cell membranes, HEK293, Membrane; conditions: hek293; Not Active = under 50% inhibition at 10 µM
Sequence (P41145 whole entry): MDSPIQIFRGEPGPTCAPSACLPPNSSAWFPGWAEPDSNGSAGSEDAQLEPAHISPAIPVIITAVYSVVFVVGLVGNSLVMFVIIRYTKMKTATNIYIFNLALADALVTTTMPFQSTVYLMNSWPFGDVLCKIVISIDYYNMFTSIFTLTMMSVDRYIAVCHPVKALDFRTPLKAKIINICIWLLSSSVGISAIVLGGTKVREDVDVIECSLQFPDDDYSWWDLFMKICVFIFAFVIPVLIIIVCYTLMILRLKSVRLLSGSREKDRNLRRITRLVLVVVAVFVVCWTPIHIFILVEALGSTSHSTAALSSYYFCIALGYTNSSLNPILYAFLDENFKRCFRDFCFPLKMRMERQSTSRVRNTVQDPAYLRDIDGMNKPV

| SMILES | IC50 |
| --- | --- |
| COc1c(N2CCNC(C)C2)c(F)cc2c(=O)c(C(=O)O)cn(C3CC3)c12 (configuration not stated) [GATIFLOXACIN] | Not Active |
| CC(=O)CCCCn1c(=O)c2c(ncn2C)n(C)c1=O [PENTOXIFYLLINE] | Not Active |
| O=C1CN=C(c2ccccc2)c2cc([N+](=O)[O-])ccc2N1 [NITRAZEPAM] | Not Active |

molecular target: Cannabinoid receptor 1 (Homo sapiens, UniProt P21554); type: cell membranes, Membrane; conditions: chem-1; note: in other assays of this panel Not Active means under 50% inhibition at 10 µM
Sequence (P21554 whole entry): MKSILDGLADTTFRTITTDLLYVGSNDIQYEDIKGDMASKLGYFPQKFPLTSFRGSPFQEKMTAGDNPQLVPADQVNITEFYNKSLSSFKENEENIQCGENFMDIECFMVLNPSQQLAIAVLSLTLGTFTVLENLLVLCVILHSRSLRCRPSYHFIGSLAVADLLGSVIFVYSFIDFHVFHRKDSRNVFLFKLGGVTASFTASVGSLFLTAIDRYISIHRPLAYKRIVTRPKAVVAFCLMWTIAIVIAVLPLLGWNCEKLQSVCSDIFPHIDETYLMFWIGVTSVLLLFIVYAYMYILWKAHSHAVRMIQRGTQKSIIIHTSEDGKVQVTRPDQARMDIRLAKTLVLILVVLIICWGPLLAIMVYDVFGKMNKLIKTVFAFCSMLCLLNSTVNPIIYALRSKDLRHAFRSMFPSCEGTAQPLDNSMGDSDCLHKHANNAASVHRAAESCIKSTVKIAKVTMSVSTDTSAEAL

| SMILES | IC50 |
| --- | --- |
| COc1c(N2CCNC(C)C2)c(F)cc2c(=O)c(C(=O)O)cn(C3CC3)c12 (configuration not stated) [GATIFLOXACIN] | Not Active |
| CC(=O)CCCCn1c(=O)c2c(ncn2C)n(C)c1=O [PENTOXIFYLLINE] | Not Active |
| O=C1CN=C(c2ccccc2)c2cc([N+](=O)[O-])ccc2N1 [NITRAZEPAM] | Not Active |

molecular target: Cytochrome P450 2C9 (Homo sapiens, UniProt P11712); conditions: bti-tn-5b1-4; note: in other assays of this panel Not Active means under 50% inhibition at 10 µM
Sequence (P11712 whole entry): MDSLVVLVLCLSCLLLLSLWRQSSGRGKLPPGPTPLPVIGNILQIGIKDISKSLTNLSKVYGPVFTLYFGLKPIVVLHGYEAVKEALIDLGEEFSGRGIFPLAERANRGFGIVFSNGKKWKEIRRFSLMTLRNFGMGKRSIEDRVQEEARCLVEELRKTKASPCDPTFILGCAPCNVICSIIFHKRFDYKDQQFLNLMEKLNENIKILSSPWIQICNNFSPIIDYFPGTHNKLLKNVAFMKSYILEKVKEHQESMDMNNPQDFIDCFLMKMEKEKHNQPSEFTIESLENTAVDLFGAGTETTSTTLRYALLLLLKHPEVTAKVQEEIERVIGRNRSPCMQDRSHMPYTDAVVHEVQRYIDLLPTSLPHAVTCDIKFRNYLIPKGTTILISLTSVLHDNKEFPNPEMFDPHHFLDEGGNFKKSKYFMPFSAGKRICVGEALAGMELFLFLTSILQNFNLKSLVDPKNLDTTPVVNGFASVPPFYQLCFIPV

| SMILES | IC50 | Ki |
| --- | --- | --- |
| COc1c(N2CCNC(C)C2)c(F)cc2c(=O)c(C(=O)O)cn(C3CC3)c12 (configuration not stated) [GATIFLOXACIN] | Not Active | Not Active |
| CC(=O)CCCCn1c(=O)c2c(ncn2C)n(C)c1=O [PENTOXIFYLLINE] | Not Active | Not Active |
| O=C1CN=C(c2ccccc2)c2cc([N+](=O)[O-])ccc2N1 [NITRAZEPAM] | Not Active | Not Active |

molecular target: Protein phosphatase 3 catalytic subunit alpha (Homo sapiens, UniProt Q08209); design: species or system Escherichia coli; conditions: not given

| SMILES | IC50 |
| --- | --- |
| COc1c(N2CCNC(C)C2)c(F)cc2c(=O)c(C(=O)O)cn(C3CC3)c12 (configuration not stated) [GATIFLOXACIN] | Not Active |
| CC(=O)CCCCn1c(=O)c2c(ncn2C)n(C)c1=O [PENTOXIFYLLINE] | Not Active |
| O=C1CN=C(c2ccccc2)c2cc([N+](=O)[O-])ccc2N1 [NITRAZEPAM] | Not Active |

molecular target: T4, Muscarinic acetylcholine receptor M2 (Homo sapiens, UniProt P08172); type: cell membranes, CHO-K1, Membrane; conditions: cho-k1; note: in other assays of this panel Not Active means under 50% inhibition at 10 µM
T4 sequence (P08172 whole entry): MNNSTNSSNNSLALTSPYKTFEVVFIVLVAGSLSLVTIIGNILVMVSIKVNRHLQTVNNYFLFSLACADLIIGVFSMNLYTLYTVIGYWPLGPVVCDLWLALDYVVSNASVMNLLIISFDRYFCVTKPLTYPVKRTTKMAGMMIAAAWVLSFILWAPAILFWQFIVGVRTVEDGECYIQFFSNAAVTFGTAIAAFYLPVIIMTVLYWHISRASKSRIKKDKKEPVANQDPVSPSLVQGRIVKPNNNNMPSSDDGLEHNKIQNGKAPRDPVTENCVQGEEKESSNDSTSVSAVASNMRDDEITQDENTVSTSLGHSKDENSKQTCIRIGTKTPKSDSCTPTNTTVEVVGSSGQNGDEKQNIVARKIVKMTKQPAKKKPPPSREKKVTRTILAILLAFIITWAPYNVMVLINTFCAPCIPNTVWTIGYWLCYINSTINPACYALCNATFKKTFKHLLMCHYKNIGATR

| SMILES | IC50 |
| --- | --- |
| COc1c(N2CCNC(C)C2)c(F)cc2c(=O)c(C(=O)O)cn(C3CC3)c12 (configuration not stated) [GATIFLOXACIN] | Not Active |
| CC(=O)CCCCn1c(=O)c2c(ncn2C)n(C)c1=O [PENTOXIFYLLINE] | Not Active |
| O=C1CN=C(c2ccccc2)c2cc([N+](=O)[O-])ccc2N1 [NITRAZEPAM] | Not Active |
